Consider one compound from publication PMC12706794, “Identification and Characterization of a Small-Molecule Inhibitor of the Pseudomonas aeruginosa SOS Response” (ACS Infectious Diseases, 2025).

Structures are written as SMILES. Converted amounts (≈) assume the structure as drawn.

Data set [1] deals with T1, RecAPa*-induced full-length LexAPa autoproteolysis (Pseudomonas aeruginosa, UniProt P37452).
T1 construct: Full-length LexAPa was used instead of FlAsH-LexAPa ^CTD; made in house; host or cells: E. coli BL21(DE3)
Briefly: RecAPa*-induced LexAPa autoproteolysis assay by SDS-PAGE. Format: biochemical, P. aeruginosa. The note with it: 1 μM full-length LexAPa, 1 μM RecA*Pa, 1 h at 37 °C. The protocol: To further validate the activity of A12 on RecA*Pa-LexAPa, an assay was performed using full-length LexAPa, and autoproteolysis was followed by SDS-PAGE in the presence of different concentrations of A12 (Figure E). Cleavage reactions were performed at 1 μM full-length LexAPa, initiated by the addition of 1 μM RecA*Pa, and stopped after a 1 h incubation at 37 °C, corresponding to the same conditions used for the FP assay.
SDS-PAGE was used as an orthogonal technique to FP to validate the dose-dependent inhibition of RecAPa*-induced LexAPa autocleavage by the selected hit compound.
Full-length LexAPa was used instead of FlAsH-LexAPa ^CTD, but reaction volumes, molar concentrations of reagents, incubation time, and temperature were kept the same as in the FP-based assay. Following 1 h of incubation at 37 °C in the presence of RecAPa*, reactions were stopped by adding Laemmli solubilization buffer and freezing the samples at −20 °C.
Samples were boiled 5 min at 95 °C before being loaded on 4–12% polyacrylamide gels. After Coomassie staining of the gels, the intensity of the bands corresponding to LexAPa and its autoproteolytic fragments was quantified using ImageJ. Data obtained from LexACTD/NTD bands densitometry were used to estimate LexA self-cleavage percent inhibition (scaling all the data from 0%, positive control, to 100%, negative control). […]

The target of data set [2] is T2, LexAPa S125A (Pseudomonas aeruginosa, UniProt P37452, S125A).
T2 construct: Concerning full-length LexAPa ^S125A, a biphasic melting curve was obtained for the pure protein; made in house; host or cells: E. coli BL21(DE3)
The experiment in a line: Isothermal titration calorimetry on LexAPa S125A. Type of data set: binding, P. aeruginosa. How it is done:
To investigate deeper the binding of A12 to the two members of the P. aeruginosa SOS complex, ITC was performed on RecAPa and LexAPa ^S125A (Figure D,E). The integrated binding isotherms of both proteins were best fitted by a “one set of sites” model.
64 μM RecAPa and 58.5 μM LexAPa ^S125A were titrated with the selected compound (2.5 mM solution) using a Microcal PEAQ-ITC instrument (Malvern Panalytical) at 25 °C with a stirring rate of 750 rpm. Proteins and the ligand were dissolved in ITC Buffer (20 mM Tris–HCl, 150 mM NaCl, 5% v/v DMSO, pH 7.5). An initial 0.4 μL injection (excluded from data analysis) was followed by 24 injections of 1.5 μL with a spacing of 150 s between each addition. Blank experiments were performed by injecting the titrant compound in a protein-devoid ITC Buffer. Blank curves were subtracted from all of the experiments. Data were analyzed by using the MicroCal PEAQ-ITC Evaluation software (Malvern Panalytical). Integrated heat signals were fitted by a “one set of sites” binding model to obtain enthalpy changes (ΔH), dissociation constants (K D), and stoichiometry of binding.
(Isothermal titration calorimetry measures the heat released or taken up as one component is titrated into another.)

The test system of data set [3] is A549 cells. The experiment in a line: Cytotoxicity assessment by MTT assay, A549. Format: cell-based, Human. As to conditions: combination of ciprofloxacin 0.5 μg/mL and A12 100 μg/mL, 3 h. The protocol:
(§1) A549 cells were seeded in flat-bottom 96-well plates at 5 × 10^4 cells/well. THP-1 monocytes were differentiated into macrophages using PMA as described above, rested in PMA-free medium, detached by trypsinization, and seeded at 5 × 10^4 cells/well. Plates were incubated overnight to allow cell attachment. […] Test medium was then removed and replaced with fresh medium containing 0.5 mg/mL 3-(4,5-dimethylthiazol-2-yl)-2,5-diphenyltetrazolium bromide (MTT). After a 2 h incubation, the medium was discarded, formazan crystals were solubilized with 100 μL of DMSO, and absorbance was measured at 570 nm using a spectrophotometer (Varioskan LUX Multimode Microplate Reader, Thermo Fisher Scientific). Cell viability was expressed as a percentage relative to the untreated controls.
In general terms: Formazan colour is commonly taken as a measure of viable cells.

Data set [4] deals with THP-1-derived macrophages. The experiment in a line: Cytotoxicity assessment by MTT assay, THP-1-derived macrophages. Type of data set: cell-based, Human. As to conditions: combination of ciprofloxacin 0.5 μg/mL and A12 100 μg/mL, 3 h. The protocol: as §1
The nature of data set [5]: Solubility in aqueous buffers. Format: physicochemical. The note with it: aqueous buffer, read-out: Solubility in aqueous buffers, concentration above which it strongly worsened.
The target of data set [6] is T3, LexAPa (Pseudomonas aeruginosa, UniProt P37452).
T3 construct: different LexAPa variants (FlAsH-LexAPa ^CTD vs full-length LexAPa) were used in the two assays; made in house; host or cells: E. coli BL21(DE3)
Briefly: ESI-MS analysis of LexAPa preincubated with A12. Type of data set: binding, P. aeruginosa. The note with it: 2 mM A12, 2 h at 25 °C; disulfide bond at Cys104, lost with 5 mM DTT. The protocol: Then, ESI-MS analysis was carried out on both RecAPa and LexAPa alone and preincubated with A12 (referred to as RecAPa-A12 and LexAPa-A12, respectively).
MS analysis was carried out on 5 μL samples of compound A12 (2 mM), of the proteins 6His-LexAPa and 6His-RecAPa (50 μM), and of the same proteins incubated with 2 mM A12 (2 h incubation at 25 °C, 10% v/v DMSO in 100 mM NaHCO3 pH 7.0). Aliquots of the latter samples were treated with 5 mM dithiothreitol (DTT) for 1 h at 25 °C before being buffer-exchanged in 100 mM NaHCO3 at pH 7.0. Samples were analyzed by an electrospray ionization (ESI) mass spectrometer equipped with a Xevo G2-XS ESI-Q-TOF mass spectrometer (Waters Corporation, Milford, Massachusetts, USA). Measurements were carried out at 1.5–1.8 kV capillary voltage and 30–40 V cone voltage.
Tryptic digestion was obtained at a 1:20 trypsin to protein ratio (by weight) after the incubation of the proteins (6His-LexAPa and 6His-RecAPa) with chemical compound A12. The reaction was left at 37 °C overnight and then stopped by freezing at – 20 °C. Proteolytic mixtures were analyzed by LC–MS, using an Agilent AdvanceBio Peptide Map column (2.1 × 150 mm × 2.7 μm; Santa Clara, CA, USA) connected to an Acquity H-Class instrument (Waters Corporation, Milford, Massachusetts, USA). […]

T1 sequence (P37452 2-204): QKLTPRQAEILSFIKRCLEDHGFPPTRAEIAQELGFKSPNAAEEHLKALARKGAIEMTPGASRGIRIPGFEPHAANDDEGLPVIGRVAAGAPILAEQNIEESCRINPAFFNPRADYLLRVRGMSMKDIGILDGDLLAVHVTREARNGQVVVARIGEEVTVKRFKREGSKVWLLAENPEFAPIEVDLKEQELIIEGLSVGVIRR
T3 sequence (P37452 whole entry): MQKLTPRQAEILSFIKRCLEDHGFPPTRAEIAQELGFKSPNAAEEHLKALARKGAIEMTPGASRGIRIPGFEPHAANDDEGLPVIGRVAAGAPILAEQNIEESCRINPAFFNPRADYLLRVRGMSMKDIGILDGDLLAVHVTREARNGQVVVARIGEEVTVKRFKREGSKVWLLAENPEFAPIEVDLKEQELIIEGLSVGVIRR
T2 sequence (P37452 2-204 S125A): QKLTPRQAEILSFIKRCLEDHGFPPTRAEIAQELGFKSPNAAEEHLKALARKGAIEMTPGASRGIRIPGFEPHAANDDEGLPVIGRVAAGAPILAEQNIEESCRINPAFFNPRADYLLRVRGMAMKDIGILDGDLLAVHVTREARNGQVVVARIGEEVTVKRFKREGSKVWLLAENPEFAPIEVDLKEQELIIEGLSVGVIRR

The IC50 is the point on the concentration scale where inhibition reaches its midpoint. Lower therefore signals greater potency. As usually defined, the Kd is the concentration at which binding is half-saturated. A lower Kd goes with a tighter complex. The compound `O=C(O)CCNc1ccccc1S` [A12, 3-(2-sulfanylanilino)propanoic acid] gave an IC50 in data set [1] of 58 ± 5 µM. The compound also showed a Kd in data set [2] of 7.4 ± 0.5 µM. Also, the “Cell viability compared to the untreated control” value in data set [3] and in data set [4] was “higher than 80%” throughout. Also, the solubility in data set [5] was approximately 500 µM (≈ 98.6 µg/mL). For the same compound, the “Mass difference of A12-modified LexAPa versus unmodified protein” value in data set [6] is recorded as 195 Da.
